Experiment [1] addresses human RORγt ligand binding domain (RORγt LBD) (Homo sapiens (Human), UniProt P51449). Kind of experiment: RORγt ThermoFluor assay (thermal shift binding affinity). Particulars: estimated from thermal shift. The procedure, abridged:
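Thermal shift used 0.065 mg/mL RORγt LBD with 60 μM 1,8-ANS in 100 mM Hepes pH 7.0, 10 mM NaCl, 2.5 mM GSH and 0.002% Tween-20, heated at 1 °C/min. Fluorescence was excited at 380–400 nm and emission read at 500 nm.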

Experiment [2] addresses human RORγt LBD (Homo sapiens (Human), UniProt P51449). The experiment is described as follows: RORγt reporter assay (GAL4-RORγt LBD luciferase in HEK293T cells). In kind it is cell-based. To be noted: for IC50: 24 hours compound treatment; for inhibition at 6 µM: HEK-293T, read-out: RORγt reporter Assay, % inhibition @ 6 μM, HEK293T cells, 6 μM. Summed up: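 HEK293T cells transiently co-transfected with GAL4-DBD–wild-type human RORγt LBD (pBIND) and GAL4-responsive firefly luciferase reporter (pGL4.31); renilla luciferase from pBIND normalises transfection/viability. Cells in phenol-red-free DMEM, 5% lipid-reduced FCS, treated with compound 24 h. Firefly/renilla ratio plotted against compound concentration.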

Experiment [3] relates to IL-17 production by CD4 T cells. Kind of experiment: Human Th17 assay (IL-17 production by CD4 T cells under Th17 differentiation). In kind it is cell-based. To be noted: human CD4+ T cells, IL-17 after 3 days, read-out: Human Th17 Assay, IC50 μM. Summed up:
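Healthy-donor peripheral CD4+ T cells (1.5×10^5/well) preincubated 1 h with titrated compound (0.2% DMSO), then differentiated with anti-CD3/CD28 beads, anti-IL4, anti-IFNγ, IL1β, IL23, IL6, TGFβ and IL2 for 3 days at 37 °C. Supernatant IL-17 quantified by MSD electrochemiluminescence against a standard curve; IC50 fitted.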

Counter-ions that a name gives are not always drawn. Like-named read-outs stand apart in the source and are kept apart here.

One may read the Kd as the constant that tells how readily two partners part at equilibrium. Broadly, the IC50 is the point on the concentration scale where inhibition reaches its midpoint. Broadly, the inhibition is the change of the read-out against control, counted positive when it falls.

Chain of human RORγt LBD (P51449 258-518): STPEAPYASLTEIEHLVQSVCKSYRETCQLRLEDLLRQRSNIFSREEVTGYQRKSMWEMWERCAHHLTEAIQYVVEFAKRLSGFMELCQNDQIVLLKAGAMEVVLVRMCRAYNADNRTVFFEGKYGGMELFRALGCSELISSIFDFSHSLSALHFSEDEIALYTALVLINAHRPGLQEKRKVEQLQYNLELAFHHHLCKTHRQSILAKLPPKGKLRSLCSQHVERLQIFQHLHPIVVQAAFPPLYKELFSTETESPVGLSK
Chain of human RORγt ligand binding domain (RORγt LBD) (P51449 other isoform, or with tags, fused parts or gaps): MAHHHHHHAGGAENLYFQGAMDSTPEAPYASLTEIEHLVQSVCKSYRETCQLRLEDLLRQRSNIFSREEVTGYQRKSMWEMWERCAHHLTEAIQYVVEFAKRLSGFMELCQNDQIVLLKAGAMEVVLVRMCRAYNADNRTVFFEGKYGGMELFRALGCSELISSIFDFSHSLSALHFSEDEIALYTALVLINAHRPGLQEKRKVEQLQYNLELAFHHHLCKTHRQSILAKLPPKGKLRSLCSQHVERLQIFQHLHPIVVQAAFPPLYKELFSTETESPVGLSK

Consider `CON(C)c1nc2ccc(C(O)(c3ccc(C(F)(F)F)nc3)c3cncn3C)cc2c(Cl)c1Cc1ccc(-n2cccn2)cc1` (single isomer, unassigned) [Example 67C, (3-(4-(1H-pyrazol-1-yl)benzyl)-4-chloro-2-(methoxy(methyl)amino)quinolin-6-yl)(1-methyl-1H-imidazol-5-yl)(6-(trifluoromethyl)pyridin-3-yl)methanol], for which, in experiment [1], the Kd was 57 nM. Besides, the “RORγt reporter Assay, % inhibition @ 6 μM” value in experiment [2] (HEK293T cells, 6 μM) is 101%. The IC50 stood at 0.12 µM in experiment [2] (HEK293T cells) and 0.1 µM in experiment [3].

As for `Cn1cncc1C(O)(c1ccc(Cl)cc1)c1ccc2nc(Cl)c(Cc3ccc(-n4cccn4)cc3)c(Cl)c2c1` (centres unmarked) [Example 11, (3-(4-(1H-Pyrazol-1-yl)benzyl)-2,4-dichloroquinolin-6-yl)(4-chlorophenyl)(1-methyl-1H-imidazol-5-yl)methanol.TFA], in experiment [1], the Kd was 75 nM. For the same compound, the IC50 in experiment [2] (HEK293T cells) was 0.16 µM; in experiment [3] (Homo sapiens, CD4+ T, 72 h), 0.3 µM. In addition, the inhibition at 6 µM in experiment [2] worked out at 104%.

With `COc1nc2ccc(C(O)(c3ccc(C#N)cc3)c3cncn3C)cc2c(C#N)c1Cc1ccc(C(F)(F)F)cc1` (single isomer, unassigned) [Example 96B, 6-((4-cyanophenyl)(hydroxy)(1-methyl-1H-imidazol-5-yl)methyl)-2-methoxy-3-(4-(trifluoromethyl)benzyl)quinoline-4-carbonitrile], the Kd in experiment [1] is 48 nM. Further, the IC50 in experiment [2] (HEK293T cells) is 0.16 µM; in experiment [3], 0.05 µM. Also, in experiment [2], the inhibition at 6 µM is 97%.

Turning to `OC(c1cccnc1)(c1cccc(F)c1)c1ccc2nc(Cl)c(Cc3ccc(-n4cccn4)cc3)c(Cl)c2c1` (centres unmarked) [Example 48, (3-(4-(1H-Pyrazol-1-yl)benzyl)-2,4-dichloroquinolin-6-yl)(3-fluorophenyl)(pyridin-3-yl)methanol], the Kd in experiment [1] was 10 nM. For the same compound, the IC50 in experiment [2] (HEK293T cells) is 0.058 µM; in experiment [3] (Homo sapiens, CD4+ T, 72 h), 0.04 µM. In experiment [2], the inhibition at 6 µM was determined as 100%.

In the case of `COc1nc2ccc(C(O)(c3cnc(C)n3C)c3cnc(C)n3C)cc2c(Cl)c1Cc1ccc(C(F)(F)F)cc1` [Example 93, (4-Chloro-2-methoxy-3-(4-(trifluoromethyl)benzyl)quinolin-6-yl)bis(1,2-dimethyl-1H-imidazol-5-yl)methanol], the Kd in experiment [1] is 0.017 nM. Further, the IC50 came out at 0.16 µM in experiment [2] (HEK293T cells) and 0.01 µM in experiment [3] (Homo sapiens, CD4+ T, 72 h). The inhibition at 6 µM in experiment [2] is 87%.

With `COc1nc2c(C)cc(C(O)(c3ccc(Cl)cc3)c3cncn3C)cc2c(Cl)c1Cc1ccc(-n2cccn2)cc1` (centres unmarked) [Example 28A, (3-(4-(1H-Pyrazol-1-yl)benzyl)-4-chloro-2-methoxy-8-methylquinolin-6-yl)(4-chlorophenyl)(1-methyl-1H-imidazol-5-yl)methanol.TFA], the Kd in experiment [1] was 53 nM. Moreover, the IC50 in experiment [2] (HEK293T cells) amounted to 0.18 µM; in experiment [3] (Homo sapiens, CD4+ T, 72 h), 0.2 µM. Besides, in experiment [2], the inhibition at 6 µM came out at 100%.

Regarding `COc1nc2ccc(C(O)(c3ccc(Cl)cc3)c3cncn3C)cc2c(OC)c1Cc1ccc(-n2cccn2)cc1` (centres unmarked) [Example 34, (3-(4-(1H-Pyrazol-1-yl)benzyl)-2,4-dimethoxyquinolin-6-yl)(4-chlorophenyl)(1-methyl-1H-imidazol-5-yl)methanol.TFA], the Kd in experiment [1] is 250 nM. Besides, the IC50 is 0.46 µM in experiment [2] (HEK293T cells) and 1.8 µM in experiment [3] (Homo sapiens, CD4+ T, 72 h). Moreover, the inhibition at 6 µM in experiment [2] amounted to 101%.

As to `Cn1cncc1C(O)(c1ccc(Cl)cc1)c1ccc2nc(C#N)c(Cc3ccc(-n4cccn4)cc3)c(C#N)c2c1` (single isomer, unassigned) [Example 71B, 3-(4-(1H-Pyrazol-1-yl)benzyl)-6-((4-chlorophenyl)(hydroxy)(1-methyl-1H-imidazol-5-yl)methyl)quinoline-2,4-dicarbonitrile], the Kd in experiment [1] is 1.6 nM. In addition, the IC50 in experiment [2] (HEK293T cells) and in experiment [3] was 0.011 µM each time. For the same compound, in experiment [2], the inhibition at 6 µM amounted to 105%.

Values taken from patent publication US9290476B2, “Methylene linked quinolinyl modulators of RORγt” (Janssen Pharmaceutica NV, priority 2012, dated 2016).
